Structures are written as SMILES. Counter-ions that a name gives are not always drawn.

The values that follow come from patent US11370761B2, “Voltage-dependent T-type calcium channel inhibitor” (Nippon Chemiphar Co., Ltd., priority 2017, dated 2022).

In the assay the target is T1, human Cav3.2 channel (Homo sapiens, UniProt O95180).
T1 construct: expressed in transfected cells
T1 sequence (O95180 whole entry): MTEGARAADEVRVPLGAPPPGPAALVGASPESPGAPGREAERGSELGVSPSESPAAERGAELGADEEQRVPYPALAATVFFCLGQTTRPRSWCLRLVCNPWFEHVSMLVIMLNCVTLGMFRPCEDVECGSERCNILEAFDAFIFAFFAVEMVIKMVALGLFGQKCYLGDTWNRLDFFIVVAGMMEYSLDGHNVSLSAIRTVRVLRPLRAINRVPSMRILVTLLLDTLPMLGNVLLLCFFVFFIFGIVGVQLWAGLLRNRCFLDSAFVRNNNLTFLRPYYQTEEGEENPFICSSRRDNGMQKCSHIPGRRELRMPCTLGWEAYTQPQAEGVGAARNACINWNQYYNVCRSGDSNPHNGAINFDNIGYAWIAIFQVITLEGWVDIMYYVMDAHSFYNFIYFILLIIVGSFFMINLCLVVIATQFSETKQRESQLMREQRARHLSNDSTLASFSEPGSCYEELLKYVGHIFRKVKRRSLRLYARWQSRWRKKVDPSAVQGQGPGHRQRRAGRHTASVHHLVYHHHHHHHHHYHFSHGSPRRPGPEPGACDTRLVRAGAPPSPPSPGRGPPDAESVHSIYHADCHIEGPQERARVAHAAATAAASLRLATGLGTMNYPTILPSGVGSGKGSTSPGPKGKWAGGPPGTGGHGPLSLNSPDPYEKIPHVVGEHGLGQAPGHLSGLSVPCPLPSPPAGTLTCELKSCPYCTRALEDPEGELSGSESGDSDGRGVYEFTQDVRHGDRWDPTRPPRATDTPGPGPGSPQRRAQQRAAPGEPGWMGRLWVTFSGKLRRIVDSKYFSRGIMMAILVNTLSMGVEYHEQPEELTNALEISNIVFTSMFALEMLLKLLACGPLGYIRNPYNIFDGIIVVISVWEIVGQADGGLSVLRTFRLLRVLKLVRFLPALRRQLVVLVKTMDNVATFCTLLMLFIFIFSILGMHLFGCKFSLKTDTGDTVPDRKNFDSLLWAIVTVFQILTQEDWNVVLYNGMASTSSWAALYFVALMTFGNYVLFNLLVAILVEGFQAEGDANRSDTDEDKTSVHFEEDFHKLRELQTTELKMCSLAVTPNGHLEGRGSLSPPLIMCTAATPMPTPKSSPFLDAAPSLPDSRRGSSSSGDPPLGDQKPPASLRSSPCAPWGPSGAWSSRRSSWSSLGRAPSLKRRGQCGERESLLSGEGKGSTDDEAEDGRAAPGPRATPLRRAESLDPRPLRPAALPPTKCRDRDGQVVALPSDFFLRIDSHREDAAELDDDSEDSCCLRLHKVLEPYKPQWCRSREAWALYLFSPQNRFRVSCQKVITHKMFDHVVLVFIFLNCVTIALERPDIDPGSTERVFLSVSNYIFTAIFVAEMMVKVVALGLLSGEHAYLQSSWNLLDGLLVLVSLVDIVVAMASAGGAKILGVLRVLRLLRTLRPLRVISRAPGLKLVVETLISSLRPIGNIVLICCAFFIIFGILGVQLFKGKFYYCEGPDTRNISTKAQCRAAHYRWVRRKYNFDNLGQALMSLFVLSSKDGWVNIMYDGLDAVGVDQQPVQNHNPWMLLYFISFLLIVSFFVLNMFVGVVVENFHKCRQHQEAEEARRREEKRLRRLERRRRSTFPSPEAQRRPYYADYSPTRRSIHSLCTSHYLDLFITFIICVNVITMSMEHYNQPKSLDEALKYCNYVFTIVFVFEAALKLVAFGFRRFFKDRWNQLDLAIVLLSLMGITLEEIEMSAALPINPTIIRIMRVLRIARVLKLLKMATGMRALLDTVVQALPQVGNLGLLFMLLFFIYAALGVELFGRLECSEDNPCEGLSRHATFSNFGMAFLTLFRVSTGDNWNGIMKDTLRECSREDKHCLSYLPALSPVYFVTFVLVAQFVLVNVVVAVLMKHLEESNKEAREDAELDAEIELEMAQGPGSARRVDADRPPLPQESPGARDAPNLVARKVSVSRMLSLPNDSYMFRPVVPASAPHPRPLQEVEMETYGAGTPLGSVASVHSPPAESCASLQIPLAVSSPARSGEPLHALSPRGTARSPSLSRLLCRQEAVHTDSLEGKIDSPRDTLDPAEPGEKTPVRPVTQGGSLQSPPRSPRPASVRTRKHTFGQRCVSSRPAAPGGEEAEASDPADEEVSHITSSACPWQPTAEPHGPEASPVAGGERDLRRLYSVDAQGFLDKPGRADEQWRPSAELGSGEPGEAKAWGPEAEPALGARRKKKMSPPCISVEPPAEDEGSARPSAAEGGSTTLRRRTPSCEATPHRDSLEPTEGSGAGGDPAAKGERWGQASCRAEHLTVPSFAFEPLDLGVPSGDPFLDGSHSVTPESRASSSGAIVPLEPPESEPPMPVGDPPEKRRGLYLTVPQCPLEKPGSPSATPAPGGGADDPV
Put plainly: Intracellular calcium concentration measurement in human Cav3.2 channel expressing stable cell line (Pharmacological Test 1). The class given is cell-based. Conditions: HEK293 cells stably expressing human Cav3.2, Fluo-4 AM fluorescence, KCl stimulation; read-out: Cav3.2 channel inhibitory action. The text has this: (1) Construction of Human Cav3.2 Channel Expressing Stable Cell Line
A sequence in which a HindIII site and a kozak sequence (GCCACC) was provided on a 5′ side of a human Cav3.2 channel open reading frame (ORF) gene and a KpnI site was provided on a 3′ side thereof was incorporated into pcDNA3.1(+) (Thermo Fisher Scientific #V790-20), and the resultant was transfected into a HEK293 cell (ATCC No. CRL-1573) according to a protocol of FuGENE (registered trademark) HD Transfection Reagent (Promega #E2311).
(2) Method of Measuring Intracellular Calcium Concentration
The human Cav3.2 channel expressing stable cell line prepared by the test method (1) was seeded in a 96-well plate using a Dulbecco's modified Eagle's medium (DMEM medium) containing 10% fetal bovine serum (FBS), followed by culturing 37° C. for 48 hours under a 5% CO2 condition. Thereafter, the medium was removed, and each well washed with an A buffer was treated with 80 μL of a fluorescent dye solution containing a liquid mixture of 22 μg of a calcium fluorescent indicator Fluo-4 AM (Dojindo Molecular Technologies, Inc., #F311), 20 μL of dimethyl sulfoxide (DMSO), 1 μL of 10% Pluronic F-127 (Thermo Fisher Scientific #P6866), and 4 mL of the A buffer. After being left to stand for 45 minutes at room temperature under a light shielding condition, the cells were washed with a B buffer. In DMSO having the same final concentration as the test compound as a negative control, and the test compound dissolved in DMSO to have a final concentration of 0.1%, each test compound concentration solution containing the B buffer was added to each well. The cells were left to stand for additional 15 minutes at room temperature under a light shielding condition, and were measured using microplate reader EnVision (PerkinElmer Co., Ltd.) by the following method. First, after measuring background fluorescence in each well, an ionophore was added, and baseline fluorescence was measured. Thereafter, B buffer containing added KCl at a concentration of 83.8 mM was added to each well, and an increase in fluorescence due to calcium influx caused by the stimulation was measured for 10 seconds. Inhibition percentage was calculated from the maximum fluorescence increase value from the baseline, and an IC50 value was calculated by plotting a logarithmic value of the test compound concentration and inhibition activity. The measurement was performed by observing fluorescence of 510 nm emitted when the cells were irradiated with excitation light of 485 nm.
A buffer: 140 mM NaCl, 5 mM KCl, 1 mM MgCl2, 0.5 mM CaCl2, 10 mM Glucose, 10 mM HEPES, pH 7.3
B buffer: potassium equilibrium potential: −92 mV
Turning to `CC(NC(=O)C1CC1c1nc2ccccc2[nH]1)C(=O)Nc1cnc(Br)cn1` (single isomer, unassigned) [Example 18B, Trans-2-(1H-benzo[d]imidazol-2-yl)-N-(1-((5-bromopyrazin-2-yl)amino)-1-oxopropan-2-yl) cyclopropane-1-carboxamide], the IC50 is > 10000 nM. To `O=C(Nc1ccc(C(F)(F)F)cc1)C1CCCN1C(=O)C1CC1c1nc2ccccc2[nH]1` (single isomer, unassigned) [Example 19A, Trans-1-(2-(1H-benzo[d]imidazol-2-yl)cyclopropane-1-carbonyl)-N-(4-(trifluoromethyl)phenyl)pyrrolidine-2-carboxamide] belongs 1000 to 10000 nM; to `O=C(Nc1ccc(C(F)(F)F)cc1)C1CCCN1C(=O)C1CC1c1nc2ccccc2[nH]1` (single isomer, unassigned) [Example 19B, Trans-1-(2-(1H-benzo[d]imidazol-2-yl)cyclopropane-1-carbonyl)-N-(4-(trifluoromethyl)phenyl)pyrrolidine-2-carboxamide], 1000 to 10000 nM; to `O=C(NC1CCN(c2ccc(C(F)(F)F)cc2)C1=O)[C@H]1C[C@@H]1c1nc2ccccc2[nH]1` (single isomer, unassigned) [Example 23A], 1000 to 10000 nM. Turning to `O=C(NC1CCN(c2ccc(C(F)(F)F)cc2)C1=O)[C@H]1C[C@@H]1c1nc2ccccc2[nH]1` (single isomer, unassigned) [Example 23B], the IC50 fell in the range of 100 to 1000 nM.

For `COCC(NC(=O)[C@H]1C[C@@H]1c1nc2ccccc2[nH]1)C(=O)Nc1ccc(F)c(C(F)(F)F)c1` (single isomer, unassigned) [Example 32A], the IC50 is 100 to 1000 nM. In the case of `COCC(NC(=O)[C@H]1C[C@@H]1c1nc2ccccc2[nH]1)C(=O)Nc1ccc(F)c(C(F)(F)F)c1` (single isomer, unassigned) [Example 32B], the IC50 fell in the range of 100 to 1000 nM. For the molecule `O=C(NC1CC(=O)N(c2ccc(C(F)(F)F)nc2)C1)[C@H]1C[C@@H]1c1nc2ccccc2[nH]1` (single isomer, unassigned) [Example 33A], the IC50 was 1000 to 10000 nM. As for `O=C(NC1CC(=O)N(c2ccc(C(F)(F)F)nc2)C1)[C@H]1C[C@@H]1c1nc2ccccc2[nH]1` (single isomer, unassigned) [Example 33B], the IC50 lay in the range of 1000 to 10000 nM. For `CC(NC(=O)C1CC1c1nc2ccccc2[nH]1)C(=O)Nc1cccc(C(F)(F)F)c1` (single isomer, unassigned) [Example 38A, Trans-2-(1H-benzo[d]imidazol-2-yl)-N-(1-oxo-1-((3-(trifluoromethyl)phenyl)amino)propan-2-yl) cyclopropane-1-carboxamide], the IC50 is ≤ 100 nM. Next, `CC(NC(=O)C1CC1c1nc2ccccc2[nH]1)C(=O)Nc1cccc(C(F)(F)F)c1` (single isomer, unassigned) [Example 38B, Trans-2-(1H-benzo[d]imidazol-2-yl)-N-(1-oxo-1-((3-(trifluoromethyl)phenyl)amino)propan-2-yl) cyclopropane-1-carboxamide]: ≤ 100 nM; `CC(C)Oc1ccc(NC(=O)C(C)NC(=O)C2CC2c2nc3ccccc3[nH]2)cc1` (stereo not drawn) [Example 3, Trans-2-(1H-benzo[d]imidazol-2-yl)-N-(1-((4-isopropoxyphenyl)amino)-1-oxopropan-2-yl) cyclopropane-1-carboxamide]: 1000 to 10000 nM. On to `CC(NC(=O)C1CC1c1nc2ccccc2[nH]1)C(=O)NCc1ccc(S(C)(=O)=O)cc1` (stereo not drawn) [Example 9, Trans-2-(1H-benzo[d]imidazol-2-yl)-N-(1-((4-(methylsulfonyl)benzyl)amino)-1-oxopropan-2-yl) cyclopropane-1-carboxamide], for which the IC50 was > 10000 nM. Turning to `CC(NC(=O)C1CC1c1nc2ccccc2[nH]1)C(=O)NC1CN(C(=O)OC(C)(C)C)C1` (stereo not drawn) [Example 10, tert-Butyl trans-3-(2-(2-(1H-benzo[d]imidazol-2-yl)cyclopropane-1-carboxamido)propanamido)azetidine-1-carboxylate], the IC50 is > 10000 nM. To `CC(NC(=O)C1CC1c1nc2ccccc2[nH]1)C(=O)NC1CCN(C(=O)OC(C)(C)C)CC1` (stereo not drawn) [Example 11, tert-Butyl trans-4-(2-(2-(1H-benzo[d]imidazol-2-yl)cyclopropane-1-carboxamido)propanamido)piperidine-1-carboxylate] belongs 1000 to 10000 nM; to `CC(NC(=O)C1CC1c1nc2ccccc2[nH]1)C(=O)NC1CCNCC1` (stereo not drawn) [Example 12, Trans-2-(1H-benzo[d]imidazol-2-yl)-N-(1-oxo-1-(piperidin-4-ylamino)propan-2-yl) cyclopropane-1-carboxamide hydrochloride], 1000 to 10000 nM. For the molecule `CCC(=O)N1CCC(NC(=O)C(C)NC(=O)C2CC2c2nc3ccccc3[nH]2)CC1` (stereo not drawn) [Example 13, Trans-2-(1H-benzo[d]imidazol-2-yl)-N-(1-oxo-1-((1-propionylpiperidin-4-yl)amino)propan-2-yl) cyclopropane-1-carboxamide], the IC50 is > 10000 nM.

Regarding `CC(NC(=O)C1CC1c1nc2ccccc2[nH]1)C(=O)NCc1ccc(C(F)(F)F)cc1` (stereo not drawn) [Example 14, Trans-2-(1H-benzo[d]imidazol-2-yl)-N-(1-oxo-1-((4-(trifluoromethyl)benzyl)amino)propan-2-yl) cyclopropane-1-carboxamide], the IC50 lay in the range of 100 to 1000 nM. Regarding `CC(NC(=O)C1CC1c1nc2ccccc2[nH]1)C(=O)NCc1ccc(C(F)(F)F)nc1` (stereo not drawn) [Example 15, Trans-2-(1H-benzo[d]imidazol-2-yl)-N-(1-oxo-1-(((6-(trifluoromethyl)pyridin-3-yl)methyl)amino)propan-2-yl) cyclopropane-1-carboxamide], the IC50 fell in the range of 1000 to 10000 nM. Next, `CC(NC(=O)C1CC1c1nc2ccccc2[nH]1)C(=O)Nc1cnccn1` (stereo not drawn) [Example 17, Trans-2-(1H-benzo[d]imidazol-2-yl)-N-(1-oxo-1-(pyrazin-2-ylamino)propan-2-yl) cyclopropane-1-carboxamide]: > 10000 nM. In the case of `O=C(NC1(C(=O)Nc2ccccc2C(F)(F)F)CC1)[C@H]1C[C@@H]1c1nc2ccccc2[nH]1` [Example 25, 1-((1S, 2S)-2-(1H-Benzo[d]imidazol-2-yl)cyclopropane-1-carboxamido)-N-(2-(trifluoromethyl)phenyl) cyclopropane-1-carboxamide], the IC50 lay within 1000 to 10000 nM. Next, `CCn1c([C@H]2C[C@@H]2C(=O)NC2(C(=O)Nc3ccc(C(F)(F)F)nc3)CC2)nc2ccccc21` [Example 27, 1-((1S, 2S)-2-(1-Ethyl-1H-benzo[d]imidazol-2-yl)cyclopropane-1-carboxamido)-N-(6-(trifluoromethyl)pyridin-3-yl) cyclopropane-1-carboxamide]: ≤ 100 nM.

Turning to `O=C(NC1(C(=O)Nc2ccc(C(F)(F)F)cc2F)CC1)[C@H]1C[C@@H]1c1nc2ccccc2[nH]1` [Example 28, 1-((1S, 2S)-2-(1H-Benzo[d]imidazol-2-yl)cyclopropane-1-carboxamido)-N-(2-fluoro-4-(trifluoromethyl)phenyl) cyclopropane-1-carboxamide], the IC50 is 100 to 1000 nM.

Consider `O=C(NC1(C(=O)Nc2cncc(C(F)(F)F)c2)CC1)[C@H]1C[C@@H]1c1nc2ccccc2[nH]1` [Example 29, 1-((1S, 2S)-2-(1H-Benzo[d]imidazol-2-yl)cyclopropane-1-carboxamido)-N-(5-(trifluoromethyl)pyridin-3-yl) cyclopropane-1-carboxamide], for which the IC50 lay within 1000 to 10000 nM. Regarding `CC(C)N(C(=O)CNC(=O)[C@H]1C[C@@H]1c1nc2ccccc2[nH]1)c1ccc(C(F)(F)F)nc1` [Example 30, (1S, 2S)-2-(1H-Benzo[d]imidazol-2-yl)-N-(2-(isopropyl (6-(trifluoromethyl)pyridin-3-yl)amino)-2-oxoethyl) cyclopropane-1-carboxamide], the IC50 was > 10000 nM.

On to `O=C(NC1(C(=O)Nc2ccc(F)c(C(F)(F)F)c2)CC1)[C@H]1C[C@@H]1c1nc2ccccc2[nH]1` [Example 31, 1-((1S, 2S)-2-(1H-Benzo[d]imidazol-2-yl)cyclopropane-1-carboxamido)-N-(4-fluoro-3-(trifluoromethyl)phenyl) cyclopropane-1-carboxamide], for which the IC50 was ≤ 100 nM. In the case of `O=C(NC1(C(=O)Nc2ccc(F)c(C(F)(F)F)c2)CC1)[C@H]1C[C@@H]1c1nc2cc(Cl)ccc2[nH]1` [Example 34, 1-((1S, 2S)-2-(5-Chloro-1H-benzo[d]imidazol-2-yl)cyclopropane-1-carboxamido)-N-(4-fluoro-3-(trifluoromethyl)phenyl) cyclopropane-1-carboxamide], the IC50 was ≤ 100 nM.
